Laboratory results as given in ChEMBL document CHEMBL1141985, “Carbonic anhydrase inhibitors. Inhibition of the human cytosolic isozyme VII with aromatic and heterocyclic sulfonamides” (Bioorg Med Chem Lett, 2005).

Molecular target: Carbonic anhydrase 7 (Homo sapiens, UniProt P43166)
Sequence (P43166 whole entry): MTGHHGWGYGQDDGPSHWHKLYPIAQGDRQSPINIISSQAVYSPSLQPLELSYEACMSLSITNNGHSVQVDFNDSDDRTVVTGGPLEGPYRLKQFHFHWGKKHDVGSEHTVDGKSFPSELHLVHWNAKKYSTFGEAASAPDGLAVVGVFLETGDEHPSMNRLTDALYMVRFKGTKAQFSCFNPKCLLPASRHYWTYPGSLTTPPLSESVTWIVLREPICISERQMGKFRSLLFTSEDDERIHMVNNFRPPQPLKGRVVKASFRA
Description: Ki value against human carbonic anhydrase VII

| SMILES | Ki [nM] |
| --- | --- |
| NS(=O)(=O)c1nc2ccccc2s1 | 4 |
| NNc1ccccc1S(N)(=O)=O | 68 |
| Nc1nnc(S(N)(=O)=O)s1 | 5.2 |
| Nc1ccc(S(=O)(=O)NCc2ccc(S(N)(=O)=O)cc2)cc1 | 5.6 |
| Nc1ccc(S(N)(=O)=O)cc1I | 150 |
| NS(=O)(=O)c1nnc(-c2ccccc2Cl)s1 | 5.4 |
| Nc1ccc(S(=O)(=O)NC2NN=C(S(N)(=O)=O)S2)cc1 (stereo not given) | 7 |
| Nc1nccc(Nc2ccc(S(N)(=O)=O)cc2)n1 | 6.8 |
| Nc1ccccc1S(N)(=O)=O | 45 |
| Nc1ccc(S(N)(=O)=O)cc1Br | 61 |
| Cn1nc(S(N)(=O)=O)sc1=N | 4.3 |
| NS(=O)(=O)c1ccc(CCO)cc1 | 66 |
| Nc1ccc(S(N)(=O)=O)cc1F | 75 |
| NS(=O)(=O)c1ccc(CO)cc1 | 60 |
| Nc1ccc(S(N)(=O)=O)cc1Cl | 120 |
| Nc1ccc(S(=O)(=O)NCCc2ccc(S(N)(=O)=O)cc2)cc1 | 6.5 |
| NNc1ccc(S(N)(=O)=O)cc1 | 89 |
| NS(=O)(=O)c1ccc(C(=O)O)cc1 [CARZENIDE] | 52 |
| NCc1ccc(S(N)(=O)=O)cc1 [MAFENIDE] | 75 |
| Cc1ccc(S(N)(=O)=O)cc1 [P-TOLUENESULFONAMIDE] | 88 |
| Nc1ccc(S(N)(=O)=O)cc1 [SULFANILAMIDE] | 70 |

Molecular target: Carbonic anhydrase 1 (Homo sapiens, UniProt P00915)
Sequence (P00915 whole entry): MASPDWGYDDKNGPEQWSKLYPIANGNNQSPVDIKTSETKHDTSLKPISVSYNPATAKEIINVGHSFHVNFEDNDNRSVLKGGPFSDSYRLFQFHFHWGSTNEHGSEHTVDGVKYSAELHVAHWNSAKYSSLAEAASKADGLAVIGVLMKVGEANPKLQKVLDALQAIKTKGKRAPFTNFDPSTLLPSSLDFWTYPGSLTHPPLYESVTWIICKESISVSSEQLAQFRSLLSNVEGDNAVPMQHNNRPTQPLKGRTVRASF
Description: Ki value against human carbonic anhydrase I

| SMILES | Ki [nM] |
| --- | --- |
| NS(=O)(=O)c1nnc(-c2ccccc2Cl)s1 | 690 |
| NNc1ccc(S(N)(=O)=O)cc1 | 28000 |

Molecular target: Carbonic anhydrase 13 (Mus musculus, UniProt Q9D6N1)
Sequence (Q9D6N1 whole entry): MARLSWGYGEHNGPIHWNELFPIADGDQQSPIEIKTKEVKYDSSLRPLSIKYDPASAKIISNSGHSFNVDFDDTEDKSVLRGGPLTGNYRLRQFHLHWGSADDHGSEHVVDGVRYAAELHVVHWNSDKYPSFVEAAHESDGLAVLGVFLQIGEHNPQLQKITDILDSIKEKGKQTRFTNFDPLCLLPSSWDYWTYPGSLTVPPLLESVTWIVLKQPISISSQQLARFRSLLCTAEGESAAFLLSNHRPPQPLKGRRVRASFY
Description: Ki value against murine carbonic anhydrase XIII

| SMILES | Ki [nM] |
| --- | --- |
| Nc1ccc(S(=O)(=O)NCc2ccc(S(N)(=O)=O)cc2)cc1 | 2 |
| Nc1ccc(S(=O)(=O)NCCc2ccc(S(N)(=O)=O)cc2)cc1 | 1.9 |
